From ChEMBL document CHEMBL4428063, “Novel Pyrimidine Toll-like Receptor 7 and 8 Dual Agonists to Treat Hepatitis B Virus” (J Med Chem, 2016)
The source made the active and inactive calls. The calls are words filed in the database; no cut-off is given here.

Key:
[1] = molecular target: T1, Toll-like receptor 9 (Homo sapiens) (UniProt Q9NR96); assay: Agonist activity at wild-type human TLR9 expressed in HEK293 cells up to 25 uM measured after 6 hrs by NF-kappaB luciferase reporter gene assay; type: cell-based
T1 sequence (whole entry): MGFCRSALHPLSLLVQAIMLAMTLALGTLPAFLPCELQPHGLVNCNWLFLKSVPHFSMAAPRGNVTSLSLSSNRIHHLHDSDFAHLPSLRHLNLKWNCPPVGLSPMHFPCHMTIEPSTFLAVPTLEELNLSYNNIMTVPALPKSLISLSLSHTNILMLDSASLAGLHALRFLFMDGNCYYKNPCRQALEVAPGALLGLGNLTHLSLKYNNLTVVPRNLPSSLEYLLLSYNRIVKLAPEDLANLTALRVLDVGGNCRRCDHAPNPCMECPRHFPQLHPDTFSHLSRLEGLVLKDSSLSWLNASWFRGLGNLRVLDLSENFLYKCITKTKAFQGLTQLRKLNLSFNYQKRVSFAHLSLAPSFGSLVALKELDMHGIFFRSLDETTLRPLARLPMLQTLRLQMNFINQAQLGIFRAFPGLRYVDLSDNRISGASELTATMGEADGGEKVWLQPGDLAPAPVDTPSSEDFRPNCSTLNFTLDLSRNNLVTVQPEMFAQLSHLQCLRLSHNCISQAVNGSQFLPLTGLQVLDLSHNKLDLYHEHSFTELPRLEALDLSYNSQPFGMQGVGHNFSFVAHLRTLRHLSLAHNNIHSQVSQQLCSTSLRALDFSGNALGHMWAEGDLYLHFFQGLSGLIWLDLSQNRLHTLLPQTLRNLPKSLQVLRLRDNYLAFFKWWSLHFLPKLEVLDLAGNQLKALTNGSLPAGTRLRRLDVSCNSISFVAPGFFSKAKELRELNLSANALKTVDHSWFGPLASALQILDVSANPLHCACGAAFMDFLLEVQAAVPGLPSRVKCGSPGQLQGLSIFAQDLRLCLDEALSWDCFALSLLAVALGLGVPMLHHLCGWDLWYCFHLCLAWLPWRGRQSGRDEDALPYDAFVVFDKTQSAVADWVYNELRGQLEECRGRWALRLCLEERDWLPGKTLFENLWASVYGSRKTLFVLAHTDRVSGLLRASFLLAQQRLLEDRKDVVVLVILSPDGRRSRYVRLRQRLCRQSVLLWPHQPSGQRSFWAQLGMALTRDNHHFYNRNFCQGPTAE

HepG2 = assay: Cytotoxicity against human HepG2 cells measured after 72 hrs by multiplex end point analysis; type: cell-based; conditions: hepg2, 72 h
[2] = Fraction absorbed in Sprague-Dawley rat plasma at 10 mg/kg, po; type: ADME, organism-based; conditions: read-out: Fabs
[3] = Tmax in Sprague-Dawley rat plasma at 10 mg/kg, po; type: ADME, organism-based
[4] = Tmax in Sprague-Dawley rat liver at 10 mg/kg, po; type: ADME, organism-based
[5] = Cmax in Sprague-Dawley rat plasma at 10 mg/kg, po; type: ADME, organism-based; parameters: dose 10 mg/kg, route oral
[6] = Cmax in Sprague-Dawley rat liver at 10 mg/kg, po; type: ADME, organism-based; parameters: dose 10 mg/kg, route oral
[7] = Ratio of drug level in Sprague-Dawley rat liver to plasma at 10 mg/kg, po; type: ADME, organism-based; conditions: liver and plasma
[8] = Tmax in C57Bl/6 mouse at 1 to 50 mg/kg, po; type: ADME, organism-based; conditions: in vivo
[9] = Intrinsic clearance in cynomolgus monkey liver microsomes assessed per mg protein at 1 uM measured after 60 mins; type: ADME, Macaca fascicularis, Microsome; conditions: read-out: CLH
[10] = Intrinsic clearance in human liver microsomes assessed per mg protein at 1 uM measured after 60 mins; type: ADME, Microsome; conditions: read-out: CLH
[11] = Intrinsic clearance in C57Bl/6 mouse hepatocytes at 1 uM measured after 120 mins; type: ADME, cell-based, Hepatocyte; conditions: 2 h
[12] = Intrinsic clearance in Sprague-Dawley rat hepatocytes at 1 uM measured after 120 mins; type: ADME, cell-based, Hepatocyte; conditions: 2 h
[13] = Intrinsic clearance in dog hepatocytes at 1 uM measured after 120 mins; type: ADME, cell-based, Canis lupus familiaris, Hepatocyte; conditions: 2 h
[14] = Intrinsic clearance in human hepatocytes at 1 uM measured after 120 mins; type: ADME, cell-based, Hepatocyte; conditions: 2 h
[15] = Plasma concentration in C57Bl/6 mouse infected with HBV genotype D at 5 mg/kg, po dosed once per week for 8 weeks administered 6 weeks after viral infection and measured on day 42 post 1 hr of dosage; type: ADME, organism-based; conditions: in vivo
[16] = Plasma concentration in C57Bl/6 mouse infected with HBV genotype D at 5 mg/kg, po dosed once per week for 8 weeks and measured after 164 hrs after dosing prior to subsequent dosing; type: ADME, organism-based; conditions: in vivo
[17] = Cmax in cynomolgus monkey plasma at 3 mg/kg, administered through oral gavage measured after 24 hrs; type: ADME, organism-based, Macaca fascicularis; parameters: dose 3 mg/kg, route oral
[18] = Tmax in cynomolgus monkey plasma at 3 mg/kg, administered through oral gavage measured after 24 hrs; type: ADME, organism-based, Macaca fascicularis
[19] = AUC(0 to last) in cynomolgus monkey plasma at 3 mg/kg, administered through oral gavage measured after 24 hrs; type: ADME, organism-based, Macaca fascicularis; parameters: dose 3 mg/kg, time 0 - last, route oral
[20] = Oral bioavailability in cynomolgus monkey at 3 mg/kg, measured after 24 hrs; type: ADME, organism-based, Macaca fascicularis; conditions: in vivo
[21] = Cmax in cynomolgus monkey plasma at 9 mg/kg, administered through oral gavage measured after 24 hrs; type: ADME, organism-based, Macaca fascicularis; parameters: dose 9 mg/kg, route oral
[22] = Tmax in cynomolgus monkey plasma at 9 mg/kg, administered through oral gavage measured after 24 hrs; type: ADME, organism-based, Macaca fascicularis
[23] = Oral bioavailability in cynomolgus monkey at 9 mg/kg, measured after 24 hrs; type: ADME, organism-based, Macaca fascicularis; conditions: in vivo
[24] = Solubility of the compound; type: physicochemical
[25] = molecular target: Toll-like receptor 3 (Homo sapiens) (UniProt O15455); assay: Agonist activity at wild-type human TLR3 expressed in HEK293 cells up to 25 uM measured after 6 hrs by NF-kappaB luciferase reporter gene assay; type: cell-based
[26] = molecular target: Toll-like receptor 4 (Homo sapiens) (UniProt O00206); assay: Agonist activity at wild-type human TLR4 expressed in HEK293 cells up to 25 uM measured after 6 hrs by NF-kappaB luciferase reporter gene assay; type: cell-based
Toll-like receptor 4 (Homo sapiens), sequence (O00206 whole entry): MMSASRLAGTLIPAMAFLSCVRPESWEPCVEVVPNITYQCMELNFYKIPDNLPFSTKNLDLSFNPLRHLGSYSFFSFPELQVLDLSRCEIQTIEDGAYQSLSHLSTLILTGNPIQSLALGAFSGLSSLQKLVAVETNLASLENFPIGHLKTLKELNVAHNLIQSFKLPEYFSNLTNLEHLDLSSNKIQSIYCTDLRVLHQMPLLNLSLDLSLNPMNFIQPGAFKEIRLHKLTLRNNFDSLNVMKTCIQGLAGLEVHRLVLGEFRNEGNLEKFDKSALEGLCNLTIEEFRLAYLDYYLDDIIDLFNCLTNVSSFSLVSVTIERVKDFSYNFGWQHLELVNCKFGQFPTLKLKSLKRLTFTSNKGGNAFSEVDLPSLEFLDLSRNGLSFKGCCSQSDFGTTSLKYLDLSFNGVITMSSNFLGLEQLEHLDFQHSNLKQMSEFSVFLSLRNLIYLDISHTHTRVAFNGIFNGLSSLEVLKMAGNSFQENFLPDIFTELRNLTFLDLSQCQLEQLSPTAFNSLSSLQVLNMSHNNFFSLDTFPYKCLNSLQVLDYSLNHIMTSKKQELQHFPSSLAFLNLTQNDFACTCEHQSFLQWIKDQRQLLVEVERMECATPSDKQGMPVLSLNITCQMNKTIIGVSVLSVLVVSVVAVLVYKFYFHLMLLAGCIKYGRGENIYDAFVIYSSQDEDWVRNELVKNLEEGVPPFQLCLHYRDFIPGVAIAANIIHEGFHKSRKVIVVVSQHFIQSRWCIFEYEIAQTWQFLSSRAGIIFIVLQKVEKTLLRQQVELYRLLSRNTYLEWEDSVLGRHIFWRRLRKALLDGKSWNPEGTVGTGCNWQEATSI

Toll-like receptor 3 (Homo sapiens), sequence (O15455 whole entry): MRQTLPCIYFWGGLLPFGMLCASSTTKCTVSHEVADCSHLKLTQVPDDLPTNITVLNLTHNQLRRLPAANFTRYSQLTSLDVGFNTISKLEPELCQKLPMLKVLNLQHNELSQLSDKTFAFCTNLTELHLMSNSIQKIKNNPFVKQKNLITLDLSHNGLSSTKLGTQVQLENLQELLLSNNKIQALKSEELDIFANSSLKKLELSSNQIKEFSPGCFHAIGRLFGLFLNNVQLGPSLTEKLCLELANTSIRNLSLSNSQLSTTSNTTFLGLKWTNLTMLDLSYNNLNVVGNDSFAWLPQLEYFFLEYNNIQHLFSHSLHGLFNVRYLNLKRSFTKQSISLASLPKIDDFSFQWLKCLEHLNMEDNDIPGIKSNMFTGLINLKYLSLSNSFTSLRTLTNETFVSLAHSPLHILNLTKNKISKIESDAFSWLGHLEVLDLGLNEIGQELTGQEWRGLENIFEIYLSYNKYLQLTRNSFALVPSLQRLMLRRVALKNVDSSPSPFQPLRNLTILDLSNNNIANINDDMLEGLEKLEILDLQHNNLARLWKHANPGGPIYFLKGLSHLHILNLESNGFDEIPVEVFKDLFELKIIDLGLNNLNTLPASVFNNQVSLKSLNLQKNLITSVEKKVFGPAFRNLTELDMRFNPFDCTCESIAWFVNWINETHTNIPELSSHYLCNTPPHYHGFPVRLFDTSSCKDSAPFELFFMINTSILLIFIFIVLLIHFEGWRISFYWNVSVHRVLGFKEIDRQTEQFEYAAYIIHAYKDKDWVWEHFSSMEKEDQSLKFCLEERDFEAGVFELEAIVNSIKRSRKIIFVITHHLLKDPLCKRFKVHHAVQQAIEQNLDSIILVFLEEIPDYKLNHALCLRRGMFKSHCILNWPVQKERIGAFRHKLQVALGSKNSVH

Activity [1]: inactive
Fa [2]: 55%
Tmax [3]: 1 h
Tmax [4]: 0.5 h
Cmax [5]: 0.065 µg/mL
Cmax [6]: 1710 ng/g
Kp [7]: 14
Tmax [8]: 0.5 to 1 h
microsomal CLint at 1 µM [9]: 8 µL/min/mg
microsomal CLint at 1 µM [10]: < 4 µL/min/mg
CLH [11]: 20 µL/min
CLH [12]: 68 µL/min
CLH [13]: 99 µL/min
CLH [14]: 18 µL/min
Cp [15]: 0.245 µg/mL
Drug uptake [16]: Not Active
Cmax [17]: 0.007 µg/mL
Tmax [18]: 1 h
AUC(0-t) at 24 h [19]: 0.011 µg·h/mL
bioavailability [20]: 0.8%
Cmax [21]: 0.034 µg/mL
Tmax [22]: 0.5 to 2 h
bioavailability [23]: 1.5%
solubility [24]: Soluble
Activity [25]: inactive
Activity [26]: inactive
SMILES: CCCC[C@@H](CCO)Nc1nc(N)ncc1OC
EC20 (HepG2): > 86 µM
